Where two headings read alike, the source gives them in different places.
Columns and labels:
S. aureus = S. aureus in vitro; cited from earlier work
[1] = tested on: undecaprenyl diphosphate synthase (UPPS); details: read-out: UPPS IC50; cited from earlier work
MRSA strain (S. aureus) = details: cited from earlier work
[2] = Toxicity against mammalian cells; assay type: cell-based
Bacillus anthracis = details: cited from earlier work
Yersinia pestis = details: cited from earlier work
E. coli (K12) = test: E. coli cell growth inhibition; details: Escherichia coli, read-out: E. coli EC50, cell growth inhibition, E. coli K12
[3] = target: undecaprenyl diphosphate synthase (UPPS); test: UPPS inhibition; assay type: biochemical; details: read-out: UPPS IC50; both UPPS enzymes, approximate

O=C(Nc1cccc(C2=NCCN2)c1)c1ccc(-c2ccc(C(=O)Nc3cccc(C4=NCCN4)c3)cc2)cc1 [Compound 1, N4,N4'-bis(3-(4,5-dihydro-1H-imidazol-2-yl)phenyl)-[1,1'-biphenyl]-4,4'-bicarboxamide]
MIC (S. aureus): ~ 250 ng/mL
IC50 [1]: ~0.1 µM
adverse side-effects (MRSA strain (S. aureus); S. aureus mouse model of infection): no adverse side-effects
mice survived (MRSA strain (S. aureus); i.p. infection model with a MRSA strain): 20/20
EC50 [2]: > 100 µM

c1cc2cc(-c3ccc(-c4cc5ccc(C6=NCCN6)cc5[nH]4)cc3)[nH]c2cc1C1=NCCN1 [Compound 7, 1,4-bis(6-(4,5-dihydro-1H-imidazol-2-yl)-1H-indol-2-yl)benzene]
efficacy in mice model of infection (Bacillus anthracis): effective
efficacy in mice model of infection (Yersinia pestis): effective

C(=C\c1cc2ccc(C3=NCCN3)cc2[nH]1)/c1cc2ccc(C3=NCCN3)cc2[nH]1.Cl [Compound 8]
efficacy in mice model of infection (Bacillus anthracis): effective
efficacy in mice model of infection (Yersinia pestis): effective

O=C(Nc1cccc(C2=NCCCN2)c1)c1ccc(-c2ccc(C(=O)Nc3cccc(C4=NCCCN4)c3)cc2)cc1 [Compound 10, N4,N4'-bis(3-(1,4,5,6-tetrahydropyrimidin-2-yl)phenyl)biphenyl-4,4'-dicarboxamide]
EC50 (E. coli (K12)): < 1 µM
IC50 [3]: ~5 µM
